Earlier results, collected in US20060205727A1, “Combination therapy for endothelial dysfunction, angina and diabetes” (priority 2005, published 2006).

Assays:
[1] = in vivo
[2] = system: plasma C-reactive protein; settings: acute myocardial infarction, streptokinase plus intravenous trimetazidine infusion

Row | SMILES | QT interval prolongation [1] | levels of plasma C-reactive protein [2]
1 | COc1ccccc1OCC(O)CN1CCN(CC(=O)Nc2c(C)cccc2C)CC1 (centres unmarked) [Ranolazine, ranolazine] | causes QT interval prolongation | 
2 | COc1ccc(CN2CCNCC2)c(OC)c1OC [trimetazidine] |  | reduce the levels of plasma C-reactive protein
